Data on three compounds can be found in publication PMC3445516 (PLoS ONE, 2012).

The target of series [1] is T1, recombinant GST-tagged human protein kinase D1 (PKD1) (Homo sapiens, UniProt Q15139).
T1 construct: purchased Enzo Life sciences (Farmingdale, NY)
T1 sequence (Q15139 1-912): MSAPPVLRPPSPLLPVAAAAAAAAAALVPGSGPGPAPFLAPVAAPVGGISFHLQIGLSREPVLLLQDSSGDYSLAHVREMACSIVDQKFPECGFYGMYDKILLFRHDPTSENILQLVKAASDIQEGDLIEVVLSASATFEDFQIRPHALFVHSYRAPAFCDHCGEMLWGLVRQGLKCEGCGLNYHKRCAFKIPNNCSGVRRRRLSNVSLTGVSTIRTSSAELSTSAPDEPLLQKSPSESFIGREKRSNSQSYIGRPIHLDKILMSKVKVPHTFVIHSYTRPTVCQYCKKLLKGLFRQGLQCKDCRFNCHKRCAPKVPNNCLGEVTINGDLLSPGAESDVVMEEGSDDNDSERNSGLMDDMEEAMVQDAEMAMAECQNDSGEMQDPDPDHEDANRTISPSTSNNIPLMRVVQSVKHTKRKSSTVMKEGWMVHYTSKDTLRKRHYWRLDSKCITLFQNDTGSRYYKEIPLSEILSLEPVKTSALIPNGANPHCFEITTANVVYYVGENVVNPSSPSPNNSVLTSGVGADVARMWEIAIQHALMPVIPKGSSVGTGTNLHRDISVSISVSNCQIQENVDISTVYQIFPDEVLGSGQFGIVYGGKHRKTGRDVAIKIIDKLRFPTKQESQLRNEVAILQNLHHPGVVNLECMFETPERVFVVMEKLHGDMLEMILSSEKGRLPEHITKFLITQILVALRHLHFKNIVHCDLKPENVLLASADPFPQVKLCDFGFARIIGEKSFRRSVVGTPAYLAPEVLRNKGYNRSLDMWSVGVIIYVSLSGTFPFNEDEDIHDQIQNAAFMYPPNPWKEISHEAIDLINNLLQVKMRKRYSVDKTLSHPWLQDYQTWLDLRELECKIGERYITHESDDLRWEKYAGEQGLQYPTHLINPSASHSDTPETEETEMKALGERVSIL
Nature of the series: In vitro radiometric PKD1 kinase assay. Type of series: biochemical. The settings on record: read-out: Inhibition of PKD1. Here is the method:
All compounds were given distinct UPCMLD (University of Pittsburgh Center for Chemical Methodologies and Library Development) IDs and were then assigned numerical IDs for convenient data display. Evaluation of each compound was carried out in triplicate at a single concentration (1 µM). Our previously described PKD1 inhibitor, kb-NB142-70, and DMSO (solvent alone) were used as positive and negative controls, respectively. Percent residual kinase activity was calculated based on that of the negative control (DMSO).
Kinase active recombinant GST-tagged human protein kinase D1 (PKD1) was obtained from Enzo Life sciences (Farmingdale, NY). DMSO was purchased from Sigma. Recombinant PKCα, PKCδ and CAMKIIα were obtained from SignalChem (Richmond, BC, Canada). ATP was purchased from Fisher Scientific. HDAC5 substrate peptide was synthesized by Biobasic Canada Inc. (Markham, ON). Myelin basic protein 4–14 was purchased from AnaSpec Inc. (Fremont, CA). The targeted kinase inhibitor library was obtained from Hoffmann-La Roche, Inc.
1.2 µg of HDAC-5 was used as substrate in the reaction. Phosphorylation of HDAC5 was detected in a kinase reaction having 1 µCi [γ-^32P] […] The reaction was incubated at 30° for 10 minutes and 25 µL of the reaction was spotted on Whatman P81 filter paper. The filter paper was washed 3 times in 0.5% phosphoric acid, air dried and counted using Beckman LS6500 multipurpose scintillation counter. Percent PKD1 inhibition was graphed using GraphPad Prism software 5.0.

On the set-up of series [2]: method as in PMID 14561090. The settings on record: cited from earlier work.
The next series concerns the target p38α (Homo sapiens, UniProt Q16539). The settings on record: 10 and 100 nM. Here is the method: Phosphorylation of 3.5 µg of p38 substrate was detected in a reaction having 1 µCi [γ-^32P] ATP (Perkin Elmer Life Sciences), 50 µM ATP, 50 ng active recombinant p38 in 50 µL kinase buffer containing 25 mM Tris-HCl, pH 7.5, 10 mM MgCl2, 5 mM β-glycerophosphate, 0.1 mM Na3VO4 and 2 mM DTT. The reaction was incubated at 30°C for 10 minutes and 25 µL of the reaction was spotted on Whatman P81 filter paper. The filter paper was washed 3 times in 0.5% phosphoric acid, air dried and counted using Beckman LS6500 multipurpose scintillation counter. Percent p38 inhibition was graphed using GraphPad Prism software 5.0.

In the next series the test system is FLT3(ITD). Nature of the series: Ambit kinase profiling, competition binding. Set-up: species or system human. The settings on record: compound concentration 10 uM. The source says:
(§1) Supplement pone.0044653.s004.xls, sheet "Compound 122" | column: Percent Competition

A further series has as its target T2, MAP4K2 (Homo sapiens, UniProt Q12851).
T2 construct: purchased Ambit Biosciences (KINOMEscan)
As to the kind of experiment: Ambit kinase profiling, competition binding. The settings on record: compound concentration 10 uM, read-out: Percent Competition.
Description: as §1

A further series addresses T3, PKN2 (Homo sapiens, UniProt Q16513).
T3 construct: purchased Ambit Biosciences (KINOMEscan)
As to the kind of experiment: Ambit kinase profiling, competition binding. The settings on record: compound concentration 10 uM, read-out: Percent Competition.
Description: as §1

The target of series [3] is T4, JAK2(JH1domain-catalytic) (Homo sapiens, UniProt O60674).
T4 construct: JAK2(JH1domain-catalytic); purchased Ambit Biosciences (KINOMEscan)
As to the kind of experiment: Ambit kinase profiling, competition binding. The settings on record: compound concentration 10 uM.
Description: as §1

The next series has as its target T5, ABL1(E255K) (Homo sapiens, UniProt P00519, E255K).
T5 construct: purchased Ambit Biosciences (KINOMEscan)
Nature of the series: Ambit kinase profiling, competition binding. The settings on record: compound concentration 10 uM, read-out: Percent Competition.
Description: as §1

Another series has as its target T6, MST1 (Homo sapiens, UniProt Q13043).
T6 construct: purchased Ambit Biosciences (KINOMEscan)
As to the kind of experiment: Ambit kinase profiling, competition binding. The settings on record: compound concentration 10 uM.
Description: as §1

A further series concerns the target T7, RIOK3 (Homo sapiens, UniProt O14730).
T7 construct: purchased Ambit Biosciences (KINOMEscan)
Nature of the series: Ambit kinase profiling, competition binding. The settings on record: compound concentration 10 uM, read-out: Percent Competition.
Description: as §1

Another series addresses T8, LTK (Homo sapiens, UniProt P29376).
T8 construct: purchased Ambit Biosciences (KINOMEscan)
Nature of the series: Ambit kinase profiling, competition binding. The settings on record: compound concentration 10 uM, read-out: Percent Competition.
Description: as §1

The next series has as its target T9, INSRR (Homo sapiens, UniProt P14616).
T9 construct: purchased Ambit Biosciences (KINOMEscan)
Nature of the series: Ambit kinase profiling, competition binding. The settings on record: compound concentration 10 uM, read-out: Percent Competition.
Description: as §1

For series [4], the target named is T10, RPS6KA2(Kin.Dom.2-C-terminal) (Homo sapiens, UniProt Q15349).
T10 construct: RPS6KA2(Kin.Dom.2-C-terminal); purchased Ambit Biosciences (KINOMEscan)
T10 sequence (Q15349 389-733 limits assumed): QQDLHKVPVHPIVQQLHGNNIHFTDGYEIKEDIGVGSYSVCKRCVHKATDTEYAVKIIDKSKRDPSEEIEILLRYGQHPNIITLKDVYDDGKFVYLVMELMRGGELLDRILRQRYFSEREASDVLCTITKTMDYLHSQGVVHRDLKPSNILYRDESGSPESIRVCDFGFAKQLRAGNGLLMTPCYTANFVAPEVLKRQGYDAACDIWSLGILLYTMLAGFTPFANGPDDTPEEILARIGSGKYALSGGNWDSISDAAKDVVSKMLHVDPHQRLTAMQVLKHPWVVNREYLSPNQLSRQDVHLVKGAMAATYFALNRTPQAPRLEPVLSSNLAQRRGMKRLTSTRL
As to the kind of experiment: Ambit kinase profiling, competition binding. The settings on record: compound concentration 10 uM, read-out: Percent Competition.
Description: as §1

The next series deals with T11, CDK11 (Homo sapiens, UniProt Q9BWU1).
T11 construct: purchased Ambit Biosciences (KINOMEscan)
T11 sequence (Q9BWU1 whole entry): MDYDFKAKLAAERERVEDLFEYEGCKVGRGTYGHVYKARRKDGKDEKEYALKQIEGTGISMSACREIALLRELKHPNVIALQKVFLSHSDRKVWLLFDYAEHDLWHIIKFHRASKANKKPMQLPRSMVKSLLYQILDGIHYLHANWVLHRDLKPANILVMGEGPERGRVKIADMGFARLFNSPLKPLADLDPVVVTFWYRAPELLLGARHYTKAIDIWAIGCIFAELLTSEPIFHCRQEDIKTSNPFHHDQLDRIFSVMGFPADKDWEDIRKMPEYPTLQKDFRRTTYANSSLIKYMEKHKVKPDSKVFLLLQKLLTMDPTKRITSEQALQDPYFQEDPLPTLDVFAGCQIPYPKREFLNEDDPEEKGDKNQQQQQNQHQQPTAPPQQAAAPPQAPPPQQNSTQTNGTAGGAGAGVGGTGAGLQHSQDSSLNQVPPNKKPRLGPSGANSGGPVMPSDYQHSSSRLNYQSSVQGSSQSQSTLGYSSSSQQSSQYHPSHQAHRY
Nature of the series: Ambit kinase profiling, competition binding. The settings on record: compound concentration 10 uM.
Description: as §1

The target of a further series is T12, PAK3 (Homo sapiens, UniProt O75914).
T12 construct: purchased Ambit Biosciences (KINOMEscan)
T12 sequence (O75914 whole entry): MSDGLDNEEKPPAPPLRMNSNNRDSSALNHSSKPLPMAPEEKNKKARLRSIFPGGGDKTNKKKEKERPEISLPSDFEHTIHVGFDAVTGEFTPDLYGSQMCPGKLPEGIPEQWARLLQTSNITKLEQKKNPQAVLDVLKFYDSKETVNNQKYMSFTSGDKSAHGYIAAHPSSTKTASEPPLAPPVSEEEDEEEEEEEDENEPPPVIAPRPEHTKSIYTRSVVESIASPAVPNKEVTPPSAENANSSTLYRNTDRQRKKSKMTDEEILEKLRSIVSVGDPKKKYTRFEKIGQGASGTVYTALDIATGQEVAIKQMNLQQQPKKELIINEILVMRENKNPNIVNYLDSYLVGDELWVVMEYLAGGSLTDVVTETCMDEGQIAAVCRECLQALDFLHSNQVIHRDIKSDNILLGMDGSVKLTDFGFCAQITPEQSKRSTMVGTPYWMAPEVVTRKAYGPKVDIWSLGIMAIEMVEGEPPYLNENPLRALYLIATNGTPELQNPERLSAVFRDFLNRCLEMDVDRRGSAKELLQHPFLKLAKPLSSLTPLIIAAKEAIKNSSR
As to the kind of experiment: Ambit kinase profiling, competition binding. The settings on record: compound concentration 10 uM, read-out: Percent Competition.
Description: as §1

The next series deals with T13, AKT3 (Homo sapiens, UniProt Q9Y243).
T13 construct: purchased Ambit Biosciences (KINOMEscan)
T13 sequence (Q9Y243 whole entry): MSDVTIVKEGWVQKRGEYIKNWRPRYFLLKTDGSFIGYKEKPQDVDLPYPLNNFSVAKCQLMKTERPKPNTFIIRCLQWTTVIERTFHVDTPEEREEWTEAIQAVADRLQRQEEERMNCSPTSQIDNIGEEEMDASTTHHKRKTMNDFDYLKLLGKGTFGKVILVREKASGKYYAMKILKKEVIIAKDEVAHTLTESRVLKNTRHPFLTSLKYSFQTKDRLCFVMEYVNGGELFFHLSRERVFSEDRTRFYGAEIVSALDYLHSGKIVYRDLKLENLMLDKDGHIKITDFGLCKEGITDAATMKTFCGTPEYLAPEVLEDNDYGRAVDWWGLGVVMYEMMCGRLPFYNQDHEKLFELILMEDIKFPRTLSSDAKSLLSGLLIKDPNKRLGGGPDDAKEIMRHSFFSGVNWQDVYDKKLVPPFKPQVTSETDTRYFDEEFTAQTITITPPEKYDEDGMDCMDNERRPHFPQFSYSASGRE
As to the kind of experiment: Ambit kinase profiling, competition binding. The settings on record: compound concentration 10 uM, read-out: Percent Competition.
Description: as §1

Each structure is given as a SMILES string. Read-outs that look alike come from different tables or passages of the source.

p38α, sequence (Q16539 whole entry): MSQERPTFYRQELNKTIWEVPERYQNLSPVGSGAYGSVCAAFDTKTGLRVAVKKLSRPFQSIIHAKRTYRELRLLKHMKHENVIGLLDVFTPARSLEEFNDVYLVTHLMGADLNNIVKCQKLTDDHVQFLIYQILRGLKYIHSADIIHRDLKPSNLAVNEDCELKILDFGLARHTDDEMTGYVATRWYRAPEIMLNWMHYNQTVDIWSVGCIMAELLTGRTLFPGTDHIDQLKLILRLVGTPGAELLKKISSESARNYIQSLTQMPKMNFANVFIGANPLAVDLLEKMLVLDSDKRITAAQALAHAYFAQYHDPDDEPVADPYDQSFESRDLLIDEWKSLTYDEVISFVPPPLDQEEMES
T8 sequence (P29376 17-864): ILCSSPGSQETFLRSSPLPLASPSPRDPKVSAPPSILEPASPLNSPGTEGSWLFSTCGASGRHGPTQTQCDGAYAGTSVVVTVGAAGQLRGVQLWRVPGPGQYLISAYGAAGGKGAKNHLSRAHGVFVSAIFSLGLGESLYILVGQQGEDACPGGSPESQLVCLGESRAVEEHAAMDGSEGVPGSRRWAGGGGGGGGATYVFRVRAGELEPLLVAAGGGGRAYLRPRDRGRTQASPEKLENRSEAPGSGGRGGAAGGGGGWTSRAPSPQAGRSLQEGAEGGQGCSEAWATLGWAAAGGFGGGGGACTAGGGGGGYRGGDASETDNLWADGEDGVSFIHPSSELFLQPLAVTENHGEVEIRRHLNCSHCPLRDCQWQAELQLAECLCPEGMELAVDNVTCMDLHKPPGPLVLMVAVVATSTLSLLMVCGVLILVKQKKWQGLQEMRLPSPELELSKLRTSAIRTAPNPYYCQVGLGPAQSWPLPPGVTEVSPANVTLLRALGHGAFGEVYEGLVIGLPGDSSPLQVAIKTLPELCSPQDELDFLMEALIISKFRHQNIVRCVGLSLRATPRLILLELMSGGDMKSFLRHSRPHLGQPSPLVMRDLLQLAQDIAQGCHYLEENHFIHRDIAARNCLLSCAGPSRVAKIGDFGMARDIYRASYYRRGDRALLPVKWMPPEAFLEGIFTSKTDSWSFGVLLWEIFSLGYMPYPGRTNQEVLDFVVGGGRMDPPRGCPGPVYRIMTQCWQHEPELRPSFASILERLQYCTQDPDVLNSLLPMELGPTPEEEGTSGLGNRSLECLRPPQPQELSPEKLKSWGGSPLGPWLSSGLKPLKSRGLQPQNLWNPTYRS
T9 sequence (P14616 27-1297): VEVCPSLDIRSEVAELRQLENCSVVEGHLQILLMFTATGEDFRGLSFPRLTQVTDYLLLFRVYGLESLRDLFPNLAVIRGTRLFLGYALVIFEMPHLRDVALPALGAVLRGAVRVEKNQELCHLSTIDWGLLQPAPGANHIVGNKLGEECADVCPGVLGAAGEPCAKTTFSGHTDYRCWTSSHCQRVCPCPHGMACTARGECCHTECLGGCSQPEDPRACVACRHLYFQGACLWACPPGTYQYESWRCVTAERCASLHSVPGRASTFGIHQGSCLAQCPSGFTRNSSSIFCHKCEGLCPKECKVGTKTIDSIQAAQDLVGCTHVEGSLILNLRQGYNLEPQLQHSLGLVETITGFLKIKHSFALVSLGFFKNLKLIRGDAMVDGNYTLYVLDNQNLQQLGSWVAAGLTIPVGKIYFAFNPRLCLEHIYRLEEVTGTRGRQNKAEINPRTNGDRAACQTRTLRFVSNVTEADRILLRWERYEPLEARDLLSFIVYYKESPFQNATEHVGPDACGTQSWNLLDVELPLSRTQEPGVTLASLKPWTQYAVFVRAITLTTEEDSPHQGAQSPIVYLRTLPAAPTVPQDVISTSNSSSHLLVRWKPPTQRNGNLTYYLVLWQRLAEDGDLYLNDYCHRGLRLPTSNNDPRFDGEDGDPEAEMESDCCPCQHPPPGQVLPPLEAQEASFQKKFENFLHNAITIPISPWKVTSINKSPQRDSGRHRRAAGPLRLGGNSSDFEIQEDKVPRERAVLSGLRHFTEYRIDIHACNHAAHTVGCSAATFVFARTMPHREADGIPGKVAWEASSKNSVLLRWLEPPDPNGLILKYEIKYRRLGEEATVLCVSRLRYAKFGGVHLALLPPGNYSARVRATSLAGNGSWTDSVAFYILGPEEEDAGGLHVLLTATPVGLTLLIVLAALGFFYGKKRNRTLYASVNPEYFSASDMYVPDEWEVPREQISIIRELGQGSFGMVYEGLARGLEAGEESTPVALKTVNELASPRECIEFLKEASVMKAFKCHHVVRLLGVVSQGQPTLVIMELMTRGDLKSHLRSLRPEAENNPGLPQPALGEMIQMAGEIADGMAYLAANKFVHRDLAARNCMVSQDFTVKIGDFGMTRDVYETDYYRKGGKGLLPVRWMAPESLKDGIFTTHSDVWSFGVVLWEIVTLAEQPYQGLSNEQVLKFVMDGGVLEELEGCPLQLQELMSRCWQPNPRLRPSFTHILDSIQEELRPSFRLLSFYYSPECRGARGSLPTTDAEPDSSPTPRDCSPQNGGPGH
T6 sequence (Q13043 whole entry): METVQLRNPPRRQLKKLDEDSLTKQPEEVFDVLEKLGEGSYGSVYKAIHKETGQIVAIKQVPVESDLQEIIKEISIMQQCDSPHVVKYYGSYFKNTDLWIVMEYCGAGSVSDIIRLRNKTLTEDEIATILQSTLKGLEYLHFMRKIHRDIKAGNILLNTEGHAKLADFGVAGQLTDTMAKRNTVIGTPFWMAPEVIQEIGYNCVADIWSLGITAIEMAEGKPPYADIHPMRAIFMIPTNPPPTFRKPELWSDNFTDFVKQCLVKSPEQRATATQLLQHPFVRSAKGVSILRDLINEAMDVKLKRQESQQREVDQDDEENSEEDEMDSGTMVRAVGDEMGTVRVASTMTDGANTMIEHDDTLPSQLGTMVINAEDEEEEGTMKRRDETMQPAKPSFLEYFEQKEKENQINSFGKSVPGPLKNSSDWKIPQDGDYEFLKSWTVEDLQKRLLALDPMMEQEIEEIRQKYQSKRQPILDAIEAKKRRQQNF

Take `Fc1ccc(-c2c(-c3ccncc3)[nH]c3nccnc23)cc1` [Compound 122]: the inhibition at 1 µM in [1] (1 µM, triplicate determinations) came to 62%.
As for `CC(O)CNc1cc(-c2[nH]c3cccnc3c2-c2ccc(F)cc2)ccn1` (centres unmarked) [Compound 140], the “pharmacokinetic (PK) parameters” value in [2] is “favorable pharmacokinetic (PK) parameters”. In addition, on p38α, the “inhibition of p38α” value is “most potent”. In addition, in series [1], the inhibition at 1 µM is 80%.
As to `Fc1ccc(-c2c(-c3ccncc3)[nH]c3nccnc23)cc1` [RO1155697-000-005], the “Percent Competition” value (in the series with FLT3(ITD); in [3]; on MST1; on CDK11) was less than 50% throughout. The inhibition at 10 µM on MAP4K2, on PKN2, on ABL1(E255K), at RIOK3, on LTK and at INSRR was less than 50% throughout. In addition, the inhibition at 10 µM (in series [4]; on PAK3; on AKT3) was less than 50% each time.
